Data on 28 compounds can be found in patent publication US8124764B2, “Fused heterocyclyc inhibitor compounds” (Gilead Sciences, Inc., priority 2008, dated 2012).

In one assay the target is CDK2 (Homo sapiens, UniProt P24941). Put plainly: CDK2 inhibition. The format is biochemical.
A further assay deals with HDAC 1 (Homo sapiens, UniProt Q13547). Put plainly: HDAC 1 inhibition assay with about 3 hours enzyme/compound preincubation (fluorophore/quencher peptide substrate). The format is biochemical. To be noted: 3-hour preincubation of enzyme with compound; read-out: HDAC 1 inhibitory activity (IC50 [μM]) (3-hour preincubation). As for the experimental part:
HDAC inhibitory activity of the compound of Example 1 was measured by two types of assays in which HDAC 1 was used as a target molecule. The first assay was carried out without preincubation after addition of the enzyme. The test compound was suspended in and titrated in dmso. It was then spotted into a 384-well test plate. The enzyme, HDAC 1, was diluted in assay buffer containing 25 mM Tris-HCl (pH 8.0), 137 mM NaCl, 2.7 mM KCl, and 0.01% Tween-20 and added to the pre-spotted compound. The peptide substrate containing a fluorophore/quencher pair was diluted in the same assay buffer and added to the compound/enzyme mix initiating the reaction. The reaction incubated at room temperature for about 45 minutes. A concentrated developer solution was diluted in the assay buffer, and added to the reaction. The reaction was incubated at room temperature for about 15 minutes and relative fluorescence was read on an instrument reader.
The second assay is similar to the first assay described above, except that preincubation is carried out for about 3 hours after the enzyme is introduced. The test compound was suspended in, and titrated in DMSO. It was then spotted into a 384-well test plate. The enzyme, HDAC 1, was diluted in the same assay buffer as used in the previous assay and added to the pre-spotted compound. The enzyme/compound mix was incubated at room temperature for about 3 hours. The peptide substrate containing a fluorophore/quencher pair was diluted in the assay buffer and added to the compound/enzyme mix initiating the reaction. The reaction incubated at room temperature for 45 minutes. A concentrated developer solution was diluted in the assay buffer, and added to the reaction. The reaction was incubated at room temperature for about 15 minutes and relative fluorescence was read on an instrument reader.

Sequence of HDAC 1 (Q13547 whole entry, species assumed): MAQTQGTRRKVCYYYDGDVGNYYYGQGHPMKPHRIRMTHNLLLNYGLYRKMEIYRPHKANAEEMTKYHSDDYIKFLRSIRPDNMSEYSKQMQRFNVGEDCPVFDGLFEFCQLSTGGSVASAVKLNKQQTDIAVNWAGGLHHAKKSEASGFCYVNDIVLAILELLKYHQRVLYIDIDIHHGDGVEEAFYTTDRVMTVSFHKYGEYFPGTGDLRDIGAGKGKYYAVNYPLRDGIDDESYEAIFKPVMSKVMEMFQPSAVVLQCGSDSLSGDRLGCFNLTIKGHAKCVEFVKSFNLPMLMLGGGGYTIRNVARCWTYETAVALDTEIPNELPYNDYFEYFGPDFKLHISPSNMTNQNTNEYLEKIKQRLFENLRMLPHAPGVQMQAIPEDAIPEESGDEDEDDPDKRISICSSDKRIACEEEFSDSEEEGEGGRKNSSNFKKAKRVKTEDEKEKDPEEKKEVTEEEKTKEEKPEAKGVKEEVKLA

As for `Cc1nc2cnccn2c1-c1ccnc(Nc2ccc(C(=O)Nc3ccccc3N)cc2)n1` [Example 20, N-(2-Amino-phenyl)-4-[4-(2-methyl-imidazo[1,2-a]pyrazin-3-yl)-pyrimidin-2-ylamino]-benzamide], the IC50 turned out to be 0.9 µM at CDK2 and 0.165 µM at HDAC 1.

For `Cc1nc2cc(C(=O)O)ccn2c1-c1ccnc(Nc2ccc(C(=O)Nc3ccccc3N)cc2)n1` [Example 28, 3-{2-[4-(2-Amino-phenylcarbamoyl)-phenylamino]-pyrimidin-4-yl}-2-methyl-imidazo[1,2-a]pyridine-7-carboxylic acid], the IC50 was 2.53 µM against CDK2 and 0.621 µM at HDAC 1.

In the case of `Cc1nc2ccccn2c1-c1ccnc(Nc2ccc(C(=O)Nc3ccccc3N)cn2)n1` [Example 66, N-(2-aminophenyl)-6-(4-(2-methylimidazo[1,2-a]pyridin-3-yl)pyrimidin-2-ylamino)nicotinamide], the IC50 on CDK2 was 3.48 µM; at HDAC 1, 0.289 µM.

Turning to `Cc1nc2ccccn2c1-c1ccnc(Nc2nnc(C(=O)NO)s2)c1` [Example 75, N-hydroxy-5-(4-(2-methylimidazo[1,2-a]pyridin-3-yl)pyridin-2-ylamino)-1,3,4-thiadiazole-2-carboxamide], the IC50 on HDAC 1 came to 0.669 µM.

On to `Cc1nc2cc(C(F)(F)F)ccn2c1-c1ccnc(Nc2ccc(C(=O)NO)cc2)n1` [Example 9, N-Hydroxy-4-[4-(2-methyl-7-trifluoromethyl-imidazo[1,2-a]pyridin-3-yl)-pyrimidin-2-ylamino]-benzamide], for which the IC50 against CDK2 worked out at 0.037 µM; on HDAC 1 it was 0.0392 µM.

Regarding `Cc1nc2c(F)cccn2c1-c1ccnc(Nc2ccc(C(=O)Nc3ccccc3N)cc2)n1` [Example 45, N-(2-Amino-phenyl)-4-[4-(8-fluoro-2-methyl-imidazo[1,2-a]pyridin-3-yl)-pyrimidin-2-ylamino]-benzamide], the figures for the IC50 against CDK2 and at HDAC 1 were 0.35 µM and 0.178 µM, respectively.

Turning to `Cc1nc2cc(OCCN3CCOCC3)ccn2c1-c1ccnc(Nc2ccc(C(=O)Nc3ccccc3N)cc2)n1` [Example 29, N-(2-aminophenyl)-4-(4-(2-methyl-7-(2-morpholinoethoxy)imidazo[1,2-a]pyridin-3-yl)pyrimidin-2-ylamino)benzamide], the results for the IC50 on CDK2 and on HDAC 1 were 2.13 µM and 0.315 µM, respectively.

As for `Cc1nc2cc(C(F)(F)F)ccn2c1-c1ccnc(Nc2ccc(C(=O)Nc3ccccc3N)cc2)n1` [Example 10, N-(2-Amino-phenyl)-4-[4-(2-methyl-7-trifluoromethyl-imidazo[1,2-a]pyridin-3-yl)-pyrimidin-2-ylamino]-benzamide], the IC50 is 0.084 µM against CDK2 and greater than 10 µM on HDAC 1.

In the case of `Cc1nc2ccccn2c1-c1ccnc(Nc2ccc(C(=O)NO)cc2F)n1` [Example 33, 3-Fluoro-N-hydroxy-4-[4-(2-methyl-imidazo[1,2-a]pyridin-3-yl)-pyrimidin-2-ylamino]-benzamide], the IC50 on CDK2 is 0.22 µM; at HDAC 1, 0.126 µM.

Take `Nc1ccccc1NC(=O)c1ccc(N(CC(F)(F)F)c2nccc(-c3cnc4ccccn34)n2)cc1` [Example 58, N-(2-Amino-phenyl)-4-[(4-imidazo[1,2-a]pyridin-3-yl-pyrimidin-2-yl)-(2,2,2-trifluoro-ethyl)-amino]-benzamide]: the IC50 at CDK2 was greater than 40 µM; at HDAC 1 it was 5.58 µM.

Take `Cc1nc2ccccn2c1-c1ccnc(Nc2ccc(C(=O)Nc3ccccc3N)c(F)c2)n1` [Example 36, N-(2-Amino-phenyl)-2-fluoro-4-[4-(2-methyl-imidazo[1,2-a]pyridin-3-yl)-pyrimidin-2-ylamino]-benzamide]: the IC50 at CDK2 was 0.11 µM; on HDAC 1, greater than 10 µM.

As to `Cc1nc2ccccn2c1-c1ccnc(Nc2cccc(C(=O)NO)c2)n1` [Example 3, N-Hydroxy-3-[4-(2-methyl-imidazo[1,2-a]pyridin-3-yl)-pyrimidin-2-ylamino]-benzamide], the figures for the IC50 at CDK2 and at HDAC 1 were 0.18 µM and 0.011 µM, respectively.

On to `Cc1nc2ccccn2c1-c1ccnc(Nc2ccc(C(=O)NO)c(F)c2)n1` [Example 35, 2-Fluoro-N-hydroxy-4-[4-(2-methyl-imidazo[1,2-a]pyridin-3-yl)-pyrimidin-2-ylamino]-benzamide], for which the values for the IC50 on CDK2 and on HDAC 1 were 0.06 µM and 0.128 µM, respectively.

Consider `Cc1nc2ncccn2c1-c1ccnc(Nc2ccc(C(=O)NO)cc2)n1` [Example 21, N-Hydroxy-4-[4-(2-methyl-imidazo[1,2-a]pyrimidin-3-yl)-pyrimidin-2-ylamino]-benzamide], for which the IC50 was 1.18 µM against CDK2 and 0.289 µM on HDAC 1.

Consider `Cc1nc2ccc(C(F)(F)F)cn2c1-c1ccnc(Nc2ccc(C(=O)NO)cc2)n1` [Example 11, N-Hydroxy-4-[4-(2-methyl-6-trifluoromethyl-imidazo[1,2-a]pyridin-3-yl)-pyrimidin-2-ylamino]-benzamide], for which the IC50 against CDK2 was determined as 0.07 µM; on HDAC 1 it was 0.089 µM.

With `Cc1nc2ccccn2c1-c1ccnc(Nc2cnc(C(=O)NO)cn2)n1` [Example 67, N-hydroxy-5-(4-(2-methylimidazo[1,2-a]pyridin-3-yl)pyrimidin-2-ylamino)pyrazine-2-carboxamide], the IC50 against CDK2 was 0.68 µM; on HDAC 1 it was 0.169 µM.

Turning to `Cc1nc2ccccn2c1-c1ccnc(Nc2cc(C(=O)Nc3ccccc3N)cs2)n1` [Example 59, N-(2-aminophenyl)-5-(4-(2-methylimidazo[1,2-a]pyridin-3-yl)pyrimidin-2-ylamino)thiophene-3-carboxamide], the results for the IC50 against CDK2 and at HDAC 1 were 0.04 µM and 0.993 µM, respectively.

For the compound `Nc1ccccc1NC(=O)c1ccc(Nc2nccc(-c3cnc4ccccn34)n2)cc1` [Example 6, N-(2-Amino-phenyl)-4-(4-imidazo[1,2-a]pyridin-3-yl-pyrimidin-2-ylamino)-benzamide], the IC50 against CDK2 came out at 0.084 µM; at HDAC 1 it was 0.197 µM.

As for `Cc1nc2ccccn2c1-c1ccnc(Nc2ncc(C(=O)NO)s2)n1` [Example 65, N-hydroxy-2-(4-(2-methylimidazo[1,2-a]pyridin-3-yl)pyrimidin-2-ylamino)thiazole-5-carboxamide], the results for the IC50 against CDK2 and on HDAC 1 were 1.86 µM and 0.109 µM, respectively.

`Nc1ccccc1NC(=O)c1ccc(Nc2ncc(F)c(-c3cnc4ccccn34)n2)cc1` [Example 50, N-(2-Amino-phenyl)-4-(5-fluoro-4-imidazo[1,2-a]pyridin-3-yl-pyrimidin-2-ylamino)-benzamide]: the IC50 at CDK2 is 0.06 µM; at HDAC 1, greater than 20 µM.

For `Cc1nc2ccccn2c1-c1ccnc(Nc2cnc(C(=O)Nc3ccccc3N)cn2)n1` [Example 68, N-(2-aminophenyl)-5-(4-(2-methylimidazo[1,2-a]pyridin-3-yl)pyrimidin-2-ylamino)pyrazine-2-carboxamide], the figures for the IC50 at CDK2 and at HDAC 1 were greater than 40 µM and 0.0206 µM, respectively.

As for `Cc1nc2ccccn2c1-c1ccnc(Nc2nc(C(=O)Nc3ccccc3N)cs2)n1` [Example 62, N-(2-aminophenyl)-2-(4-(2-methylimidazo[1,2-a]pyridin-3-yl)pyrimidin-2-ylamino)thiazole-4-carboxamide], the IC50 at CDK2 is 1.36 µM; at HDAC 1, greater than 10 µM.

For `Cc1nc2ccc(C(=O)NCCN(C)C)cn2c1-c1ccnc(Nc2ccc(C(=O)Nc3ccccc3N)cc2)n1` [Example 37, 3-(2-(4-(2-aminophenylcarbamoyl)phenylamino)pyrimidin-4-yl)-N-(2-(dimethylamino)ethyl)-2-methylimidazo[1,2-a]pyridine-6-carboxamide], the IC50 was found to be 1.88 µM at CDK2 and 0.132 µM on HDAC 1.

Take `Cc1nc2ccccn2c1-c1ccnc(Nc2ncc(C(=O)NO)cn2)c1` [Example 74, N-hydroxy-2-(4-(2-methylimidazo[1,2-a]pyridin-3-yl)pyridin-2-ylamino)pyrimidine-5-carboxamide]: the results for the IC50 at CDK2 and on HDAC 1 were 6.47 µM and 0.104 µM, respectively.

Take `Cc1nc2ccccn2c1-c1ccnc(Nc2ccc(C(=O)NO)s2)n1` [Example 52, N-hydroxy-5-(4-(2-methylimidazo[1,2-a]pyridin-3-yl)pyrimidin-2-ylamino)thiophene-2-carboxamide]: the 50% inhibitory concentration (IC50) against CDK2 was 0.07 µM; at HDAC 1, 0.31 µM.

With `Cc1nc2ccccn2c1-c1ccnc(Nc2cnc(C(=O)NO)cn2)c1` [Example 76, N-hydroxy-5-(4-(2-methylimidazo[1,2-a]pyridin-3-yl)pyridin-2-ylamino)pyrazine-2-carboxamide], the IC50 at HDAC 1 was 0.526 µM.

With `COc1ccn2c(-c3ccnc(Nc4ccc(C(=O)NO)cn4)c3)c(C)nc2c1` [Example 77, N-hydroxy-6-(4-(7-methoxy-2-methylimidazo[1,2-a]pyridin-3-yl)pyridin-2-ylamino)nicotinamide], on HDAC 1, the IC50 turned out to be 0.18 µM.

On to `Cc1nc2ccccn2c1-c1ccnc(Nc2cccc(C(=O)Nc3ccccc3N)c2)n1` [Example 4, N-(2-Amino-phenyl)-3-[4-(2-methyl-imidazo[1,2-a]pyridin-3-yl)-pyrimidin-2-ylamino]-benzamide], for which the IC50 at HDAC 1 is greater than 50 µM.

As a reminder, the IC50 is the concentration needed to halve the response being measured.
